Test results from patent publication US20220081412A1, “QUINOLINYL-PYRAZINE-CARBOXAMIDE COMPOUNDS AND USES THEREOF” (The Regents of the University of Michigan, priority 2018, published 2022).

System: MIA PaCa-2 cells
Test: Bru-seq analysis for nascent RNA synthesis (log2FC of genes, GSEA gene sets)
Assay type: cell-based, human
[1] = downregulated gene sets, C2, 4 h, MIA PaCa-2 cells

Compound: CCN(CC)CCCC(C)Nc1cnc(C(=O)Nc2cc(C)cc3cccnc23)cn1 (stereo not drawn) [J4, 5-((5-(diethylamino)pentan-2-yl)amino)-N-(6-methylquinolin-8-yl)pyrazine-2-carboxamide]
- ES: 0.576
- NES: 1.841
- synthesis of INSIG1, DHCR7, MVK and MSMO1 RNAs: upregulated
- expression of GPR135, SPDYA and ABCA1 (4 h): significant decrease
- Cell Cycle, Mitotic pathway (4 h of treatment): upregulated
- log2FC (AC004076.2, 4 h): −0.85
- log2FC (AC005534.1, 4 h): −0.75
- log2FC (AC005614.2, 4 h): −0.94
- log2FC (AC006141.1, 4 h): −0.78
- log2FC (AC007038.2, 4 h): −1.27
- log2FC (AC007619.1, 4 h): −0.84
- log2FC (AC007620.2, 4 h): −0.89
- log2FC (AC008115.3, 4 h): 0.78
- log2FC (AC008264.2, 4 h): −0.80
- log2FC (AC008906.1, 4 h): −0.98
- log2FC (AC010615.1, 4 h): −1.64
- log2FC (AC011379.1, 4 h): 0.74
- log2FC (AC018630.1, 4 h): −0.77
- log2FC (AC026461.1, 4 h): 0.86
- log2FC (AC068473.5, 4 h): 0.77
- log2FC (AC080080.1, 4 h): 0.72
- log2FC (AC087280.2, 4 h): −0.80
- log2FC (AC091152.2, 4 h): −1.06
- log2FC (AC091940.1, 4 h): −0.79
- log2FC (AC098934.1, 4 h): 0.72
- log2FC (AC108471.2, 4 h): 0.85
- log2FC (AC110769.2, 4 h): 0.80
- log2FC (AC117382.1, 4 h): −0.85
- log2FC (AC141586.1, 4 h): 0.77
- log2FC (AC239868.4, 4 h): 1.12
- log2FC (AL050343.1, 4 h): −0.82
- log2FC (AL133338.1, 4 h): 1.02
- log2FC (AL136984.1, 4 h): −1.05
- log2FC (AL136987.1, 4 h): −0.83
- log2FC (AL139260.1, 4 h): 0.88
- log2FC (AP001107.9, 4 h): 0.81
- log2FC (AP001830.1, 4 h): 0.75
- log2FC (AP002387.1, 4 h): 0.72
- log2FC (AP002748.3, 4 h): 0.76
- log2FC (AVPI1, 4 h): 1.37
- log2FC (BHLHE40, 4 h): 1.32
- log2FC (CASC21, 4 h): −0.87
- log2FC (CCNG2, 4 h): 1.62
- log2FC (DDIT3, 4 h): 1.32
- log2FC (DDIT4, 4 h): 2.33
- log2FC (DEPDC1-AS1, 4 h): 1.05
- log2FC (DHCR7, 4 h): 2.13
- log2FC (DNAJC3-AS1, 4 h): 0.75
- log2FC (EXTL3-AS1, 4 h): 0.73
- log2FC (FDFT1, 4 h): 1.65
- log2FC (FP671120.1, 4 h): −1.32
- log2FC (HIST1H1E, 4 h): 1.24
- log2FC (HIST1H3B, 4 h): 1.26
- log2FC (HMGCS1, 4 h): 1.35
- log2FC (HSD17B7P2, 4 h): 0.76
- log2FC (IDI1, 4 h): 1.49
- log2FC (INSIG1, 4 h): 2.57
- log2FC (KRT18P31, 4 h): 0.81
- log2FC (LINC01204, 4 h): −0.84
- log2FC (LINC01337, 4 h): −1.19
- log2FC (LINC01547, 4 h): 0.93
- log2FC (LINC01930, 4 h): −1.00
- log2FC (LIPG, 4 h): 1.81
- log2FC (LSS, 4 h): 1.25
- log2FC (MSMO1, 4 h): 1.65
- log2FC (MVD, 4 h): 1.36
- log2FC (MVK, 4 h): 1.68
- log2FC (NEU1, 4 h): 2.68
- log2FC (PCYT2, 4 h): 1.70
- log2FC (RNVU1-6, 4 h): −1.50
- log2FC (SCD, 4 h): 1.95
- log2FC (SDR39U1, 4 h): 1.67
- log2FC (SH2D5, 4 h): 1.29
- log2FC (SLC2A1-AS1, 4 h): 1.02
- log2FC (SLC2A6, 4 h): 1.74
- log2FC (SYPL1P2, 4 h): 0.84
- log2FC (TBC1D17, 4 h): 1.62
- log2FC (TPRKBP2, 4 h): −1.15
- log2FC (TUBA1A, 4 h): 1.24
- log2FC (ZNF295-AS1, 4 h): 0.94
- ES BILD_CTNNBl_ONCOGENIC_SIGNATURE [1]: −0.449
- ES DACOSTA_UV_RESPONSE_VIA_ERCC3_COMMON_DN [1]: −0.439
- ES DACOSTA_UV_RESPONSE_VIA_ERCC3_TTD_DN [1]: −0.469
- ES DACOSTA_UV_RESPONSE_VIA_ERCC3_XPCS_DN [1]: −0.428
- ES DAZARD_UV_RESPONSE_CLUSTER_G6 [1]: −0.408
- ES DOANE_BREAST_CANCER_CLASSES_DN [1]: −0.578
- ES GABRIELY_MIR21_TARGETS [1]: −0.328
- ES GUENTHER_GROWTH_SPHERICAL_VS_ADHERENT_DN [1]: −0.531
- ES HAMAI_APOPTOSIS_VIA_TRAIL_UP [1]: −0.368
- ES HAN_JNK_SINGALING_DN [1]: −0.579
- ES HUTTMANN_B_CLL_POOR_SURVIVAL_DN [1]: −0.606
- ES KEGG_NEUROACTIVE_LIGAND_RECEPTOR_INTERACTION [1]: −0.624
- ES LEE_TARGETS_OF_PTCH1_AND_SUFU_UP [1]: −0.515
- ES MARTINEZ_RESPONSE_TO_TRABECTEDIN [1]: −0.482
- ES MILI_PSEUDOPODIA_HAPTOTAXIS_UP [1]: −0.322
- ES RAMALHO_STEMNESS_UP [1]: −0.331
- ES REACTOME_ASSOCIATION_OF_TRIC_CCT_WITH_TARGET_PROTEINS_DURING_BIOSYNTHESIS [1]: −0.551
- ES SENGUPTA_NASOPHARYNGEAL_CARCINOMA_UP [1]: −0.360
- ES SENGUPTA_NASOPHARYNGEAL_CARCINOMA_WITH_LMP1_UP [1]: −0.365
- ES TCGA_GLIOBLASTOMA_COPY_NUMBER_DN [1]: −0.533
- ES THUM_SYSTOLIC_HEART_FAILURE_DN [1]: −0.352
- ES TURASHVILI_BREAST_LOBULAR_CARCINOMA_VS_DUCTAL_NORMAL_DN [1]: −0.476
- ES ZHANG_TLX_TARGETS_36HR_DN [1]: −0.470
- ES ZHANG_TLX_TARGETS_DN [1]: −0.446
- ES ZHENG_FOXP3_TARGETS_IN_T_LYMPHOCYTE_DN [1]: −0.611
- NES BILD_CTNNBl_ONCOGENIC_SIGNATURE [1]: −1.841
- NES DACOSTA_UV_RESPONSE_VIA_ERCC3_COMMON_DN [1]: −2.348
- NES DACOSTA_UV_RESPONSE_VIA_ERCC3_TTD_DN [1]: −1.878
- NES DACOSTA_UV_RESPONSE_VIA_ERCC3_XPCS_DN [1]: −1.784
- NES DAZARD_UV_RESPONSE_CLUSTER_G6 [1]: −1.855
- NES DOANE_BREAST_CANCER_CLASSES_DN [1]: −1.830
- NES GABRIELY_MIR21_TARGETS [1]: −1.642
- NES GUENTHER_GROWTH_SPHERICAL_VS_ADHERENT_DN [1]: −1.656
- NES HAMAI_APOPTOSIS_VIA_TRAIL_UP [1]: −1.942
- NES HAN_JNK_SINGALING_DN [1]: −1.665
- NES HUTTMANN_B_CLL_POOR_SURVIVAL_DN [1]: −2.076
- NES KEGG_NEUROACTIVE_LIGAND_RECEPTOR_INTERACTION [1]: −1.898
- NES LEE_TARGETS_OF_PTCH1_AND_SUFU_UP [1]: −1.661
- NES MARTINEZ_RESPONSE_TO_TRABECTEDIN [1]: −1.727
- NES MILI_PSEUDOPODIA_HAPTOTAXIS_UP [1]: −1.718
- NES RAMALHO_STEMNESS_UP [1]: −1.615
- NES REACTOME_ASSOCIATION_OF_TRIC_CCT_WITH_TARGET_PROTEINS_DURING_BIOSYNTHESIS [1]: −1.804
- NES SENGUPTA_NASOPHARYNGEAL_CARCINOMA_UP [1]: −1.794
- NES SENGUPTA_NASOPHARYNGEAL_CARCINOMA_WITH_LMP1_UP [1]: −1.837
- NES TCGA_GLIOBLASTOMA_COPY_NUMBER_DN [1]: −1.738
- NES THUM_SYSTOLIC_HEART_FAILURE_DN [1]: −1.673
